In one test the target is T1, dopamine D-1 receptor (Rattus norvegicus, UniProt P18901).
T1 construct: Striatal tissue was excised, pooled, and homogenized; tissue Charles River Breeding Laboratories, Mass; (animals); host or cells: striatum of male Sprague-Dawley rats, washed membrane pellet
Kind of test: Competitive inhibition assay vs. 3H-SCH 23390 (dopamine D-1 receptor binding). The arrangement: species or system Male Sprague-Dawley rat (striatal tissue). As to the method:
(§1) Many compounds capable of effecting reproducible physiological changes in neural tissues are believed to operate by binding at one or more receptor sites.
(§2) Tritiated SCH 23390 and tritiated spiperone (a potent D-2 ligand) were obtained as described in the Billard et al. reference supra and serially diluted in 0.05 M Tris buffer, pH 7.4, as required. A compound of the invention is diluted in 0.05 M Tris buffer, pH 7.4, as required.
(§3) Male Sprague-Dawley rats (200 to 250 g) from Charles River Breeding Laboratories, Mass. were used to obtain brain tissue. The rats were humanely sacrificed and their brains removed and placed on ice. Striatal tissue was excised, pooled, and homogenized (Brinkman Polytron, 10 sec) in 100 volumes (w/v) of ice cold 50 mM Tris buffer, pH 7.4 (at 25° C.). The homogenate was centrifuged at 20,000 xg for 10 min. The resultant pellet was rehomogenized in Tris buffer and centrifuged again. The final pellet was resuspended in 50 mM Tris buffer pH 7.4 containing 120 mM NaCl, 5 mM KCl, 2 mM CaCl2, and 1 mM MgCl2.
(§4) Polypropylene incubation tubes received 100 μl of the individual test compounds at various concentrations dissolved or suspended in 0.05 M Tris, pH 7.4 containing 4 mg/ml methylcellulose, 100 μl of a solution of ^3 H-SCH 23390 in Tris buffer (final reaction mixture concentration =0.3 nM) or 100 μl of a solution of 3H-spiperone in Tris buffer (final concentration =0.2 nM) and 800 μl of tissue suspension (ca. 3 mg/assay). Tubes were incubated at 37° C. for 15 minutes and rapidly vacuum filtered through Whatman GF/B filters and rinsed 4 times with 4 ml of ice cold 50 mM Tris buffer, pH 7.4. The filters were transferred to scintillation vials, equilibated with 10 ml of scintillant (Scintosol, Isolab, Inc.) for 16 hours at 25° C. and the radioactivity determined in a liquid scintillation counter. Ki values were determined as described by Billard et al. using the relationship Ki =IC50 /(1+([L]/KD)) wherein IC50 =concentration of test drug necessary to displace 50% of specifically bound ^3 H-Sch 23390, [L]=concentration of radioligand used in the assay, and KD =dissociation constant.

The target of a further test is T2, D-2 receptor (Rattus norvegicus, UniProt P61169).
T2 construct: Striatal tissue was excised, pooled, and homogenized; tissue Charles River Breeding Laboratories, Mass; (animals); host or cells: striatum of male Sprague-Dawley rats, washed membrane pellet
T2 sequence (P61169 whole entry): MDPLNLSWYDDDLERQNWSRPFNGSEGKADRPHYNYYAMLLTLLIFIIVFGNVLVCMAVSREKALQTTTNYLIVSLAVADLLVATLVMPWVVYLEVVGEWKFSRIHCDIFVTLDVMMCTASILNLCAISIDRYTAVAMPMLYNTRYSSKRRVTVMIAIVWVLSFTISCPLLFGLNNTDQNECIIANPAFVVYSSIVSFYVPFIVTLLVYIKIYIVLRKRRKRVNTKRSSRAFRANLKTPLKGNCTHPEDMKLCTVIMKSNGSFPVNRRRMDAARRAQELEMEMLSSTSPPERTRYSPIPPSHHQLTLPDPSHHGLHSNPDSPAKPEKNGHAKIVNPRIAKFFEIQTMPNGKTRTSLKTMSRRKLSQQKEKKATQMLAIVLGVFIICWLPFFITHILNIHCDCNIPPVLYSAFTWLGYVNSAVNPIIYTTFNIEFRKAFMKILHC
Kind of test: Competitive inhibition assay vs. 3H-spiperone (D-2 receptor binding). The arrangement: species or system Male Sprague-Dawley rat (striatal tissue). Particulars: rat striatal homogenate, 0.2 nM 3H-spiperone, pH 7.4, 37° C., 15 min. As to the method:
as §1, §2, §3, §4

The subject of test [1] is conditioned avoidance response (CAR). Kind of test: Conditioned avoidance suppression in rats (Rat CAR). Type of test: in vivo. Particulars: lowest dose that significantly (P<0.05) reduced avoidance responding, read-out: Rat CAR, minimal effective dose (MED). As to the method: N. Y. Acad. Sci. 66, 740 (1957)}. A series of experiments was carried out to assess the ability of the compounds of this invention to suppress the conditioned avoidance response (CAR) in rats.
Rats were required to jump onto a platform located 6.75 inches (17.15 cm) above the grid floor of an experimental chamber in response to a 5-second tone to avoid a 10-second foot shock (0.6 ma). Each experimental session consisted of 20 such trials presented at 30-second intervals. A correct CAR is scored whenever the rat jumps onto the platform during the tone (prior to foot shock). An escape response is scored when the rat jumps onto the platform during a shock. A response failure is defined as the lack of an escape response during the 10-second shock period.
Groups of 6-8 rats were trained in two consecutive days (total of 40 trials). Rats that reached criterion on day 2 (correct CARs on 16 or more of the 20 trials) were treated with either a test drug or vehicle on day 3. Suppression of CAR was analyzed statistically using Student's t-test comparing the performances of drug-treated to vehicle-treated rats.

Where [2] appears, read: rat striatal homogenate, 0.3 nM 3H-SCH 23390, pH 7.4, 37° C., 15 min, read-out: Ki vs. 3H-SCH 23390.

The values that follow come from patent publication US5015639A, “Substituted benzazepines, their preparation and pharmaceutical compositions containing them” (Schering Corporation, priority 1989, dated 1991).

Read-outs that look alike come from different tables or passages of the source.

T1 sequence (P18901 whole entry): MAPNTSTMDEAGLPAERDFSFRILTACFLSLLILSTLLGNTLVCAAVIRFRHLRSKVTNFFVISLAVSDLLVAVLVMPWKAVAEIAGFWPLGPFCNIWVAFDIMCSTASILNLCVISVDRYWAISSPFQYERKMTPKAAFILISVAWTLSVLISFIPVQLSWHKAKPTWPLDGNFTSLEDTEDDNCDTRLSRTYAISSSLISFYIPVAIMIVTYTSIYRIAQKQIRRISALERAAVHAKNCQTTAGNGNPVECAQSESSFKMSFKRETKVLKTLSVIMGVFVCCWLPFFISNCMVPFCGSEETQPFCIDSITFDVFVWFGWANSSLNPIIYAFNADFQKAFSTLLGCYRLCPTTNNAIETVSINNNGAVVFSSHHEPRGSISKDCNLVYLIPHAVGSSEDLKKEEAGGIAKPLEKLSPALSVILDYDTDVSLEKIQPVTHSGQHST

The Ki is the equilibrium dissociation constant of an inhibitor or competing ligand from its target. By minimal effective dose is commonly meant the smallest amount tested that counted as effective. In the case of `CCOC1CN(C)CCc2cc(Cl)c(O)cc21` (stereo not shown) [Compound 2, 8-chloro-5-ethoxy-3-methyl-2,3,4,5-tetrahydro-lH-3-benzazepine-7-ol], the values for the Ki on dopamine D-1 receptor and on D-2 receptor were 34 nM and 7720 nM, respectively. For the same compound, the results for the minimal effective dose in test [1] (po) and in test [1] (sc) were greater than 30 mg/kg and 1 mg/kg, respectively.
For `CCSC1CN(C)CCc2cc(Cl)c(O)cc21` (stereo not shown) [HO CH3 SC2 H5 H, 8-chloro-5-ethylthio-3-methyl-2,3,4,5-tetrahydro-lH-3-benzazepine-7-ol], the Ki amounted to 33 nM at dopamine D-1 receptor (setting [2]) and 2610 nM on D-2 receptor.
On to `CN1CCc2cc(Cl)c(O)cc2C(OCc2ccccc2)C1` (stereo not shown) [Compound 10, 8-chloro-5-benzyloxy-3-methyl-2,3,4,5-tetrahydro-lH-3-benzazepine-7-ol], for which the inhibition constant Ki on dopamine D-1 receptor (setting [2]) is 30 nM; on D-2 receptor, 2300 nM. For the same compound, the minimal effective dose was greater than 30 mg/kg in test [1] (po) and 3 mg/kg in test [1] (sc).
As for `CC(=O)Oc1cc2c(cc1Cl)CCN(C)CC2CC=C(C)C` (stereo not shown) [Compound 19, 8-chloro-7-acetoxy-5-(3-methyl-2-butenyl)-3-methyl-2,3,4,5-tetrahydro-lH-3-benzazepine], the inhibition constant Ki at dopamine D-1 receptor (setting [2]) came out at 17 nM; at D-2 receptor, 955 nM. The minimal effective dose in test [1] (po) was greater than 30 mg/kg; in test [1] (sc) it was less than 1 mg/kg.
On to `CN(C)CCCC1CN(C)CCc2cc(Cl)c(O)cc21` (stereo not shown) [HO CH3 (CH2)3 N(CH3)2 H, 8-chloro-5-(N,N-dimethylaminopropyl)-3-methyl-2,3,4,5-tetrahydro-lH-3-benzazepine-7-ol], for which the Ki at dopamine D-1 receptor (setting [2]) is 1100 nM; at D-2 receptor, greater than 100000 nM.
Turning to `CN1CCc2cc(Cl)c(O)cc2C(C2C=CCCC2)C1` (stereo not shown) [HO CH3 2-cyclohexenyl H, 8-chloro-5-(2-cyclohexenyl)-3-methyl-2,3,4,5-tetrahydro-lH-3-benzazepine-7-ol], the figures for the inhibition constant Ki at dopamine D-1 receptor (setting [2]) and at D-2 receptor were 1.1 nM and 135 nM, respectively.
For the compound `CCOC(=O)Oc1cc2c(cc1Cl)CCN(C)CC2C1CCCCC1` (stereo not shown) [Compound 16, 8-chloro-7-(ethoxy-formyloxy)-5-cyclohexyl-3-methyl-2,3,4,5-tetrahydro-lH-3-benzazepine], the Ki was determined as 133 nM at dopamine D-1 receptor (setting [2]) and 3330 nM on D-2 receptor. Besides, the values for the minimal effective dose in test [1] (po) and in test [1] (sc) were greater than 30 mg/kg and less than 3 mg/kg, respectively.
In the same order, the values of `C=CCC1CN(C)CCc2cc(Cl)c(OC(=O)C(C)C)cc21` (stereo not shown) [Compound 17, 8-chloro-7-(isopropyl-formyloxy)-5-allyl-3-methyl-2,3,4,5-tetrahydro-lH-3-benzazepine] are 84 nM, 3450 nM, greater than 30 mg/kg and 0.3 mg/kg.
For the compound `CN1CCc2cc(Cl)c(O)cc2C(N2CCCCC2)C1` (stereo not shown) [Compound 6, 8-chloro-3-methyl-5-(1-piperidinyl)-2,3,4,5-tetrahydro-lH-3-benzazepine-7-ol], the values for the Ki at dopamine D-1 receptor (setting [2]) and at D-2 receptor were 64 nM and 7500 nM, respectively. Besides, the minimal effective dose in test [1] (po) stood at 30 mg/kg; in test [1] (sc), 3 mg/kg.
Consider `C=CCC1CN(C)CCc2cc(Cl)c(OCOC(=O)C(C)(C)C)cc21` (stereo not shown) [Compound 20, 8-chloro-7-(t-butyryloxy-methoxy)-5-allyl-3-methyl-2,3,4,5-tetrahydro-lH-3-benzazepine], for which the Ki on dopamine D-1 receptor (setting [2]) is 240 nM; on D-2 receptor, 2620 nM. For the same compound, the minimal effective dose in test [1] (po) was greater than 30 mg/kg; in test [1] (sc), 0.1 mg/kg.
`CN1CCc2cc(Cl)c(O)cc2C(n2cccc2)C1` (stereo not shown) [Compound 13, 8-chloro-5-(1-pyrrolyl)-3-methyl-2,3,4,5-tetrahydro-lH-3-benzazepine-7-ol]: the results for the inhibitory constant (Ki) on dopamine D-1 receptor (setting [2]) and on D-2 receptor were 11 nM and 16100 nM, respectively. Also, the minimal effective dose in test [1] (po) is greater than 30 mg/kg; in test [1] (sc), 0.3 mg/kg.
On to `CN1CCc2cc(Cl)c(O)cc2C(OC2CCCCC2)C1` (stereo not shown) [HO CH3 cyclohexyloxy H, 8-chloro-5-cyclohexyloxy-3-methyl-2,3,4,5-tetrahydro-lH-3-benzazepine-7-ol], for which the values for the Ki at dopamine D-1 receptor (setting [2]) and at D-2 receptor were 38 nM and 10100 nM, respectively.
Consider `CCSC1CNCCc2cc(Cl)c(O)cc21` (stereo not shown) [Compound 3], for which the Ki at dopamine D-1 receptor (setting [2]) was 380 nM; on D-2 receptor, 6500 nM. Moreover, the minimal effective dose in test [1] (sc) was less than 10 mg/kg.
In the case of `C=CCC1CN(C)CCc2cc(Cl)c(OC(=O)COC)cc21` (stereo not shown) [Compound 18, 8-chloro-7-(methoxy-acetoxy)-5-allyl-3-methyl-2,3,4,5-tetrahydro-lH-3-benzazepine], the inhibition constant (Ki) at dopamine D-1 receptor (setting [2]) came out at 10.3 nM; on D-2 receptor, 566 nM. In addition, the minimal effective dose in test [1] (po) was 100 mg/kg; in test [1] (sc), less than 0.3 mg/kg.
In the case of `C=CCC1CN(C)CCc2cc(Cl)c(O)cc21` (stereo not shown) [Compound 14, 8-chloro-5-allyl-3-methyl-2,3,4,5-tetrahydro-lH-3-benzazepine-7-ol], the Ki at dopamine D-1 receptor (setting [2]) was 6 nM; on D-2 receptor it was 170 nM. Also, the minimal effective dose in test [1] (po) is greater than 30 mg/kg; in test [1] (sc), 0.1 mg/kg.
Turning to `CN1CCc2cc(Cl)c(O)cc2C(Sc2ccccc2)C1` (stereo not shown) [Compound 5, 8-chloro-3-methyl-5-phenylthio-2,3,4,5-tetrahydro-lH-3-benzazepin-7-ol], the values for the inhibitory constant (Ki) at dopamine D-1 receptor (setting [2]) and on D-2 receptor were 33 nM and 402 nM, respectively. Moreover, the minimal effective dose in test [1] (po) and in test [1] (sc) was greater than 30 mg/kg in each case.
With `CN1CCc2cc(Cl)c(O)cc2C(C2CCCC2)C1` (stereo not shown) [Compound 12], the Ki on dopamine D-1 receptor (setting [2]) was determined as 21 nM; at D-2 receptor, 1540 nM. In addition, the minimal effective dose is greater than 30 mg/kg in test [1] (po) and 1 mg/kg in test [1] (sc).
As to `CN1CCc2cc(Cl)c(O)cc2C2(CCCC2)C1` [Compound 15, 8-chloro-7-hydroxy-3-methyl-2,3,4,5-tetrahydrospiro[lH-3-benzazepine-5,5'-cyclopentane]], the Ki was 19 nM at dopamine D-1 receptor and 860 nM at D-2 receptor. In addition, the minimal effective dose in test [1] (po) is greater than 30 mg/kg; in test [1] (sc), 1 mg/kg.
Consider `CN1CCc2cc(Cl)c(O)cc2C(=Cc2ccccc2)C1` [HO CH3 CHPh], for which the Ki on dopamine D-1 receptor (setting [2]) worked out at 73 nM; on D-2 receptor, 705 nM.
Turning to `CN1CCc2cc(Cl)c(O)cc2C(n2ccnc2)C1` (stereo not shown) [Compound 7], the minimal effective dose in test [1] (po) was greater than 30 mg/kg; in test [1] (sc), greater than 10 mg/kg.
For `CN1CCc2cc(Cl)c(O)cc2C(OCC(F)(F)F)C1` (stereo not shown) [Compound 9, 8-chloro-5-(2,2,2-trifluoroethoxy)-3-methyl-2,3,4,5-tetrahydro-lH-3-benzazepine-7-ol], the inhibitory constant (Ki) at dopamine D-1 receptor (setting [2]) is 59 nM; at D-2 receptor, 14900 nM. Further, the minimal effective dose was greater than 30 mg/kg in test [1] (po) and 1 mg/kg in test [1] (sc).
Regarding `CN1CCc2cc(Cl)c(O)cc2C(C2CCCCC2)C1` (stereo not shown) [Compound 8, 8-chloro-5-cyclohexyl-3-methyl-2,3,4,5-tetrahydro-lH-3-benzazepine-7-ol], the results for the inhibition constant (Ki) at dopamine D-1 receptor (setting [2]) and on D-2 receptor were 10 nM and 570 nM, respectively. Moreover, the minimal effective dose in test [1] (po) was 30 mg/kg; in test [1] (sc) it was no more than 1 mg/kg.
Regarding `CN1CCc2cc(Cl)c(O)cc2C(Oc2ccccc2)C1` (stereo not shown) [Compound 4, 8-chloro-3-methyl-5-phenoxy-2,3,4,5-tetrahydro-lH-3-benzazepin-7-ol], the Ki was 83 nM at dopamine D-1 receptor (setting [2]) and 610 nM on D-2 receptor. In addition, the minimal effective dose in test [1] (po) is 10 mg/kg.
Take `COC1CN(C)CCc2cc(Cl)c(O)cc21` (stereo not shown) [Compound 1, 8-chloro-5-methoxy-3-methyl-2,3,4,5-tetrahydro-lH-3-benzazepine-7-ol]: the figures for the Ki at dopamine D-1 receptor and at D-2 receptor were 54 nM and 5600 nM, respectively. The minimal effective dose in test [1] (po) was greater than 30 mg/kg; in test [1] (sc), 1 mg/kg.
